Patent US4261921A, “Process for preparation of a crystalline insecticidal pyrethroid enantiomer pair” (priority 1979, dated 1981)

Assays:
[1] = test system: tobacco budworm (Heliothis virescens); assay: Topical Application Test, tobacco budworm (TBW); assay type: in vivo; settings: LD50 compared with permethrin = 1.0
Experimental: (§1) The compound of this invention was tested for insecticidal activity by applying to the insect appropriate amounts of a toxicant solution containing 5 mg/ml of toxicant in acetone. The tests were read twenty-four hours after application of the toxicant solution and the percent kill determined. The commercial insecticide permethrin, 3-phenoxybenzyl (+) cis-trans-3-(2,2-dichlorovinyl)-2,2-dimethylcyclopropanecarboxylate, was used as the standard for comparison. Relative potency, based on a value of 1.0 for permethrin, was determined by comparing the LD50 for the test compound with that for the standard. The insects employed include southern armyworm (Spodoptera eridania [Cram.]), cabbage looper (Trichoplusia ni [Hubner]), Mexican bean beetle (Epilachna varivestis Muls.), beet armyworm (Spodoptera exigua [Hubner]), milkweed bug (Oncopeltus faciatus [Dallas]), tobacco budworm (Heliothis virescens [Fabricius]), and corn earworm (Heliothis zea [Boddle]).

[2] = test system: southern armyworm (Spodoptera eridania); assay: Initial Contact (Foliar) Activity, southern armyworm (SAW); assay type: in vivo
Experimental: (§2) The compound of the invention was dissolved in a solution of 90% water, 9.75% acetone; and 0.25% octylphenoxypolyethoxyethanol to give a solution having 512 ppm (w/w) active ingredient. Aliquots of this solution were diluted with an appropriate amount of water to provide solutions containing various concentrations of active ingredient. Test organisms and techniques were as follows: The activity against Mexican bean beetle (Epilachna varivestis Muls.) and southern armyworm (Spodoptera eridania [Cram.]) was evaluated by spraying the leaves of pinto bean plants with the test solution and infesting with 3rd instar larvae after the foliage had dried. The activity against the pea aphid (Acyrthosiphon pisum [Harris]) was evaluated on broad bean plants whose leaves were sprayed before infestation with adult aphids. To prevent escape of the insects from the test site, the complete test plant or the incised leaves were placed in capped paper cups. The tests were transferred to a holding room for an exposure period of 48 hours. At the end of this time the dead and living insects were counted, the LD50 was calculated, and the potency relative to the commercial insecticide permethrin, 3-phenoxybenzyl (+) cis,trans-3-(2,2-dichloroethenyl)-2,2-dimethylcyclopropanecarboxylate determined.

[3] = test system: Mexican bean beetle (Epilachna varivestis); assay: Topical Application Test, Mexican bean beetle (MBB); assay type: in vivo
Experimental: as §1

[4] = test system: milkweed bug (Oncopeltus fasciatus); assay: Topical Application Test, milkweed bug (MWB); assay type: in vivo
Experimental: as §1

[5] = test system: insects; assay: Topical Application Test, all insects, comparison with permethrin in words; assay type: in vivo; settings: topical tests, 24 h
Experimental: as §1

[6] = test system: cabbage looper (Trichoplusia ni); assay: Topical Application Test, cabbage looper (CL); assay type: in vivo
Experimental: as §1

[7] = test system: southern armyworm (Spodoptera eridania); assay: Topical Application Test, southern armyworm (SAW); assay type: in vivo; settings: LD50 compared with permethrin = 1.0
Experimental: as §1

[8] = test system: corn earworm (Heliothis zea); assay: Topical Application Test, corn earworm (CEW); assay type: in vivo
Experimental: as §1

[9] = test system: Mexican bean beetle (Epilachna varivestis); assay: Initial Contact (Foliar) Activity, Mexican bean beetle (MBB); assay type: in vivo
Experimental: as §2

[10] = test system: beet armyworm (Spodoptera exigua); assay: Topical Application Test, beet armyworm (BAW); assay type: in vivo
Experimental: as §1

[11] = test system: pea aphid (Acyrthosiphon pisum); assay: Initial Contact (Foliar) Activity, pea aphid (PA); assay type: in vivo
Experimental: as §2

[12] = U.S. Pat. No. 4,136,195; cited from earlier work
[13] = LD50 compared with permethrin = 1.0

CC1(C)[C@H](C(=O)O[C@H](C#N)c2cccc(Oc3ccccc3)c2)[C@@H]1C=C(Cl)Cl (relative stereo) [compound of the invention, racemic mixture of (S)-(cyano)(3-phenoxyphenyl)methyl (1R,cis)-3-(2,2-dichloroethenyl)-2,2-dimethylcyclopropanecarboxylate and (R)-(cyano)(3-phenoxyphenyl)methyl (1S,cis)-3-(2,2-dichloroethenyl)-2,2-dimethylcyclopropanecarboxylate]
Relative Potency [1]: 4.2-6.1
LC50 ([2]; southern armyworm 3rd instar larvae, pinto bean, 48 h exposure): .22-.38 parts per million
Relative Potency ([2]; southern armyworm, 48 h, relative to permethrin): 9.8-16.1
Relative Potency [3, 13]: 7.2
LD50 ([3]; read 24 h after application): 2.03 ng/insect
Relative Potency [4, 13]: 37.6
LD50 ([4]; read 24 h after application): 16.4 ng/insect
insecticidal activity compared with permethrin [5]: substantially more active than permethrin
Relative Potency [6, 13]: 9.0
LD50 ([6]; read 24 h after application): 14.9 ng/insect
Relative Potency [7]: 1.0-1.5
Relative Potency [8, 13]: 2.5
LD50 ([8]; read 24 h after application): 110.9 ng/insect
LC50 ([9]; Mexican bean beetle 3rd instar larvae, pinto bean, 48 h exposure): 1.62-1.86 parts per million
Relative Potency ([9]; Mexican bean beetle, 48 h, relative to permethrin): 5.3-8.8
Relative Potency [10, 13]: 5.1
LD50 ([10]; read 24 h after application): 218.8 ng/insect
LC50 ([11]; pea aphid adults, broad bean, 48 h exposure): 1.39-21.15 parts per million
Relative Potency ([11]; pea aphid, 48 h, relative to permethrin): 2.5-9.8

CC1(C)[C@H](C(=O)O[C@H](C#N)c2cccc(Oc3ccccc3)c2)[C@@H]1C=C(Cl)Cl [1R,cis-α-S isomer, (S)-(cyano)(3-phenoxyphenyl)methyl (1R,cis)-3-(2,2-dichloroethenyl)-2,2-dimethylcyclopropanecarboxylate]
activity among the disclosed diastereomers [12]: the more active of the disclosed diastereomers
